Common to all, as to assay type: functional, Salmonella enterica subsp. enterica serovar Typhimurium
The subject of assay [1] is Salmonella typhimurium. Nature of the assay: Antimicrobial activity against Salmonella enterica serovar Typhimurium DA8326 in Caenorhabditis elegans.
Assay [2] relates to Salmonella typhimurium. Put plainly: Antimicrobial activity against Salmonella enterica serovar Typhimurium DA8325 in Caenorhabditis elegans.
In assay [3] the test system is Salmonella typhimurium. Put plainly: Antimicrobial activity against Salmonella enterica serovar Typhimurium DA8340 in Caenorhabditis elegans.
The test system of assay [4] is Salmonella typhimurium. Put plainly: Antimicrobial activity against Salmonella enterica serovar Typhimurium SMP816 in Caenorhabditis elegans.
Assay [5] relates to Salmonella typhimurium. Put plainly: Antimicrobial activity against Salmonella enterica serovar Typhimurium SMP807 in Caenorhabditis elegans.
The test system of assay [6] is Salmonella typhimurium. Nature of the assay: Antimicrobial activity against Salmonella enterica serovar Typhimurium JB1850 in Caenorhabditis elegans.
Assay [7] deals with Salmonella typhimurium. Nature of the assay: Antimicrobial activity against Salmonella enterica serovar Typhimurium JB1855 in Caenorhabditis elegans.
In assay [8] the test system is Salmonella typhimurium. Put plainly: Antimicrobial activity against Salmonella enterica serovar Typhimurium JB393 in Caenorhabditis elegans.
Assay [9] relates to Salmonella typhimurium. Nature of the assay: Antimicrobial activity against Salmonella enterica serovar Typhimurium SMP973 in Caenorhabditis elegans.
For assay [10], the system named is Salmonella typhimurium. Put plainly: Antimicrobial activity against Salmonella enterica serovar Typhimurium SMP972 in Caenorhabditis elegans.
Assay [11] relates to Salmonella typhimurium. Nature of the assay: Antimicrobial activity against Salmonella enterica serovar Typhimurium JB127 in Caenorhabditis elegans.

≈ marks a conversion by molar mass, not a printed value.

The term MIC denotes the lowest concentration that inhibits growth of the organism. A low value points to greater potency. In the case of `CCCCC[C@H](CC(=O)NO)C(=O)N[C@H](C(=O)N1CCC[C@H]1CO)C(C)C` [ACTINONIN], the MIC against Salmonella typhimurium [1], with Salmonella typhimurium [2] and with Salmonella typhimurium [3] was above 1020 µg/mL in each case. Turning to `CO[C@H]1/C=C/O[C@@]2(C)Oc3c(C)c(O)c4c(O)c(c(/C=N/N5CCN(C)CC5)c(O)c4c3C2=O)NC(=O)/C(C)=C\C=C\[C@H](C)[C@H](O)[C@@H](C)[C@@H](O)[C@@H](C)[C@H](OC(C)=O)[C@@H]1C` [RIFAMPIN], the minimal inhibitory concentration (MIC) in the assay with Salmonella typhimurium [4] and against Salmonella typhimurium [5] was above 256 µg/mL each time. For the compound `C/C(=C\C(=O)OCCCCCCCCC(=O)O)C[C@@H]1OC[C@H](C[C@@H]2O[C@H]2[C@@H](C)[C@H](C)O)[C@@H](O)[C@H]1O` [MUPIROCIN], the MIC in the assay with Salmonella typhimurium [6] and in the assay with Salmonella typhimurium [7] was above 1020 µg/mL in each case. In the case of `CC(=O)O[C@H]1C[C@@]2(C)[C@@H](C[C@@H](O)[C@H]3[C@@]4(C)CC[C@@H](O)[C@@H](C)[C@@H]4CC[C@@]32C)/C1=C(\CCC=C(C)C)C(=O)O` [FUSIDIC ACID], inhibition of growth in the assay on Salmonella typhimurium [8] (MIC) required 2400 µg/mL (≈ 4640 µM). In the case of `CCn1cc(C(=O)O)c(=O)c2ccc(C)nc21` [NALIDIXIC ACID], the MIC in the assay on Salmonella typhimurium [9] is above 256 µg/mL; against Salmonella typhimurium [10] it was 64 µg/mL (≈ 276 µM). Compound `CN[C@@H]1[C@H](O[C@H]2[C@H](O[C@H]3[C@H](O)[C@@H](O)[C@H](N=C(N)N)[C@@H](O)[C@@H]3N=C(N)N)O[C@@H](C)[C@]2(O)C=O)O[C@@H](CO)[C@H](O)[C@H]1O` [STREPTOMYCIN] displayed a minimal inhibitory concentration (MIC) in the assay on Salmonella typhimurium [11] above 1020 µg/mL.

Source of the values: ChEMBL document CHEMBL1142199, “Caenorhabditis elegans as a model to determine fitness of antibiotic-resistant Salmonella enterica serovar typhimurium” (2007).
